Measured values published in patent publication US20250161476A1 (REGENERON PHARMACEUTICALS, INC., priority 2020, published 2025).
Where a SMILES comes first, the peptide text is derived from it. [ ]: non-standard residue; d: D form. The star is where a group is joined. Bip(2'-Et,4'-O(CH2)4NH2) = CCc1cc(OCCCCN)ccc1-c1ccc(C[C@H](N)C(=O)O)cc1; Malonyl(2,2-Me2,histaminyl) = CC(C)(C(=O)NCCc1cnc[nH]1)C(=O)*; Nva(5-(3,5-Me2Ph)) = Cc1cc(C)cc(CCC[C@H](N)C(=O)O)c1; Ala(1H-tetrazol-5-yl) = N[C@@H](Cc1nnn[nH]1)C(=O)O; αMePhe(2-F) = C[C@](N)(Cc1ccccc1F)C(=O)O; Desaminohistidyl = O=C(CCc1c[nH]cn1)*; NHPh = c1ccc(N*)cc1

Legend:
[1] = target: human glucagon-like peptide 2 receptor (GLP2R) (Homo sapiens (Human), UniProt O95838); assay: CRE-luciferase reporter bioassay, HEK293/Myc-hGLP2R/Cre-Luc cell line; format: cell-based; conditions: HEK293/Myc-hGLP2R/Cre-Luc
Method: Cells were incubated overnight at 37° C. in 5% CO2. […] Plates were incubated for 5.5 h at 37° C. in 5% CO2. For end-point measurement, 100 μL/well of One-Glo reagent (Promega, #E6051) was added and plates were kept at room temperature for 5-10 minutes. Luciferase activity was measured on Envision Multilabel Plate Reader (Perkin Elmer) in Luminescent mode. The relative light units (RLU) values were obtained and the results were analyzed using nonlinear regression with GraphPad Prism software (GraphPad).

human GLP1R [2] = target: T1, human GLP1R (Homo sapiens (Human), UniProt P43220); assay: Human GLP1R cAMP accumulation assay (HEK293 cells over-expressing human GLP-1R); format: cell-based; conditions: HEK293/hGLP1R cells, 30 min
Method: The functional activity of the test compounds for agonizing GLP1R were evaluated using a cell-based assay. For the assay, HEK293 cells over-expressing full length human GLP-1R were utilized and the downstream cAMP accumulation was assessed as a measure of human GLP-1R stimulation. […] Diluted compounds were transferred to OptiPlates (100 nL/well) using an Echo liquid handler. HEK293/hGLP1R cells were thawed in 37° C. water-bath, washed 2 times with HBSS and re-suspended in assay buffer (HBSS+5 mM HEPES+500 μM IBMX+0.1% BSA). […] After centrifugation, the assay plate was incubated at 23° C. for 30 min. The reaction was terminated by adding 10 μL of lysis buffer containing D2-cAMP and a cAMP-antibody from the cyclic AMP immunoassay kit (Cisbio, Cat #62AM4PEJ). […] The levels of cAMP per well were calculated using a standard curve generated by GraphPad Prism. […] EC50 values were fitted from a four-parameter logistic equation over a 10-point response curve (GraphPad Prism).

human GLP1R [3] = target: T1, human GLP1R; assay: cAMP responsive luciferase reporter assay, HEK293/CRE-Luc/hGLP1R cells; format: cell-based; conditions: for HEK293/CRE-LUC/hGLP1R S/N: highest RLU / RLU of untreated wells; for HEK293/CRE-LUC/hGLP1R Relative Potency (% P8 EC50) / HEK293/CRE-LUC/hGLP1R Relative Signal:Noise (% P8): relative to P8 of the same experiment
Text: (§1) To test the activity of GLP1R agonist payloads, GLP1R agonist linker-payloads (LPs), and anti-GLP1R antibody tethered drug conjugates (ATDCs) of the disclosure, a cell-based cAMP responsive luciferase reporter assay was developed. To generate the assay cell line, the firefly luciferase gene was placed under the control of a cAMP response element (CRE) located upstream of a minimal promoter and transfected into HEK293 cells and referred to herein as HEK293/CRE-Luc cells.
(§2) Three-fold serial dilutions of free payloads or LPs were prepared in 100% DMSO, transferred to fresh assay media, and added to the cells at a final constant DMSO concentration of 0.2%. The last well in the plate served as a blank control containing only the assay media and 0.2% DMSO (untreated well) and was plotted as a continuation of the 3-fold serial dilution. Four to six hours later, luciferase activity was determined after the addition of One-Glo™ reagent (Promega, Cat #E6130) to each well. Relative light units (RLUs) were measured on an Envision luminometer (PerkinElmer) and EC50 values were determined using a four-parameter logistic equation over a 12-point dose response curve (GraphPad Prism). The signal to noise (S/N) was determined by taking the ratio of the highest RLU on the dose response curve to the RLU in the untreated wells.
GLP1R agonist linker payloads were conjugated to anti-hGLP1R antibodies via N-terminal heavy or light chain Q tags. Several resulting anti-GLP1R antibody tethered drug conjugates (ATDCs) were tested for activity in the HEK293/CRE-Luc/hGLP1R reporter assay as described above for the free GLP1R payload and linker-payload agonists.

HEK293/CRE-Luc cells = assay: cAMP responsive luciferase reporter assay, HEK293/CRE-Luc cells (no hGLP1R expression); format: cell-based, human
Text: as §1, §2

[4] = Plasma stability of payloads and linker-payloads, human plasma; format: in vitro ADME; conditions: for half-life at 2 µM: human, pooled plasma, pH 7.4, payload properties table, species not given, read-out: Plasma stability t½ (converted)
Method: The plasma stability of payloads and linker payloads of the disclosure were measured. For the assay, pooled frozen plasma (human, mouse or monkey) was thawed in cold water or a 37° C. water bath prior to experiment. Plasma was centrifuged at 4000 rpm for 5 min if any clots were observed, they were subsequently removed. If required, the pH was adjusted to 7.4±0.1. For the preparation of compounds and positive controls, a 1 mM intermediate solution was prepared by diluting 10 μL of their stock solution with 90 μL DMSO; a 1 mM intermediate solution of the positive control (Propantheline) was prepared by diluting 10 μL of its stock solution with 90 μL ultrapure water. […] 98 μL of plasma was spiked with 2 μL of dosing solution (100 μM) to achieve the final concentration of 2 μM in duplicate. Samples were then incubated at 37° C. in a water bath. […] At each time point, 400 μL of stop solution (200 ng/mL tolbutamide plus 200 ng/mL labetalol in 50% ACN/MeOH) was added to precipitate protein and mixed thoroughly. Sample plates were then centrifuged at 4,000 rpm for 10 min. An aliquot of supernatant (50 μL) was transferred from each well and mixed with 100 μL ultra-pure water. The samples were then shaken at 800 rpm for approximately 10 min before submitting for LC-MS/MS analysis.

T1 sequence (P43220 24-463): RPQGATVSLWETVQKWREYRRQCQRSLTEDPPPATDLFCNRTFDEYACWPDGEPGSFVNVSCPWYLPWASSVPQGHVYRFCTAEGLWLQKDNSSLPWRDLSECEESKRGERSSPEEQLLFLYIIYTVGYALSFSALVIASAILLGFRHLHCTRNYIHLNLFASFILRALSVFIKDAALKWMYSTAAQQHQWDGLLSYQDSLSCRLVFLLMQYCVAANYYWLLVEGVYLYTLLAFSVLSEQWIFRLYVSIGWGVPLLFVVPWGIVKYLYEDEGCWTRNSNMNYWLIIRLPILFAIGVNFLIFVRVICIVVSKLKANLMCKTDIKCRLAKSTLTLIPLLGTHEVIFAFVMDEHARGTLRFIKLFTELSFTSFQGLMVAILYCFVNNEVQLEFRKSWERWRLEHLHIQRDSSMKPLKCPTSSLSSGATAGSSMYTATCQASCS
Chain of human glucagon-like peptide 2 receptor (GLP2R) (O95838 whole entry): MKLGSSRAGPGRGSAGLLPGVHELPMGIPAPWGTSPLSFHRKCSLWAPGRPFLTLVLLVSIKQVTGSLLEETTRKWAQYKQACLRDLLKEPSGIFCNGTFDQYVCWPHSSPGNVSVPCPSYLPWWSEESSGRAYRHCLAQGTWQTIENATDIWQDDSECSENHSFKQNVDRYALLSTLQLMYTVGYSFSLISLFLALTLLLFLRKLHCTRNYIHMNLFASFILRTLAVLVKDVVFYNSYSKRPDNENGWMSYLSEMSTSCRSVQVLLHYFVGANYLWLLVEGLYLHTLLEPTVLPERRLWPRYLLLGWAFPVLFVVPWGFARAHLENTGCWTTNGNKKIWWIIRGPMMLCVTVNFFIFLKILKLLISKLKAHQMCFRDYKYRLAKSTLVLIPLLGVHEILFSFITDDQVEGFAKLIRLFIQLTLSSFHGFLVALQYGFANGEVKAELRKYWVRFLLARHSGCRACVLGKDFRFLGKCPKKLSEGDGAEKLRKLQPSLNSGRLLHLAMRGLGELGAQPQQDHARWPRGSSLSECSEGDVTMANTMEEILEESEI

Structure (SMILES) | CRE-dependent reporter activity [1] | EC50 (human GLP1R [2]) [nM] | HEK293/CRE-LUC/hGLP1R S/N (human GLP1R [3]) | HEK293/CRE-LUC/hGLP1R Relative Potency (% P8 EC50) (human GLP1R [3]) [%] | HEK293/CRE-LUC/hGLP1R Relative Signal:Noise (% P8) (human GLP1R [3]) [%] | EC50 (HEK293/CRE-Luc cells) [nM] | HEK293/CRE-LUC S/N (HEK293/CRE-Luc cells) | Human plasma stability assay T½ ([4]; tested for 1 day (A)) [h] | half-life at 2 µM [4] [h] | Human plasma stability assay T½ ([4]; tested for 3 days (C)) [h] | Human plasma stability assay T½ ([4]; tested for 2 hrs (B)) [h]
CC[C@H](C)[C@H](NC(=O)[C@H](Cc1ccccc1)NC(=O)[C@H](CC(=O)O)NC(=O)[C@H](CCCNC(=N)N)NC(=O)[C@H](C)NC(=O)[C@H](C)NC(=O)[C@H](CC(C)C)NC(=O)[C@H](CC(N)=O)NC(=O)[C@H](CC(=O)O)NC(=O)[C@H](CC(C)C)NC(=O)[C@@H](NC(=O)[C@@H](NC(=O)[C@H](CC(N)=O)NC(=O)[C@H](CCSC)NC(=O)[C@H](CCC(=O)O)NC(=O)[C@H](CC(=O)O)NC(=O)[C@H](CO)NC(=O)[C@H](Cc1ccccc1)NC(=O)[C@H](CO)NC(=O)CNC(=O)[C@H](CC(=O)O)NC(=O)[C@H](C)NC(=O)[C@@H](N)Cc1c[nH]cn1)[C@@H](C)O)[C@@H](C)CC)C(=O)N[C@@H](CC(N)=O)C(=O)N[C@@H](Cc1c[nH]c2ccccc12)C(=O)N[C@@H](CC(C)C)C(=O)N[C@H](C(=O)N[C@@H](CCC(N)=O)C(=O)N[C@H](C(=O)N[C@@H](CCCCN)C(=O)N[C@H](C(=O)N[C@H](C(=O)N[C@@H](CC(=O)O)C(=O)O)[C@@H](C)O)[C@@H](C)CC)[C@@H](C)O)[C@@H](C)CC [GLP2, reference compound] | activated individual cell lines as expected | – | – | – | – | – | – | – | – | – | –
CCc1cc(OCCCCNC(=O)CNC(=O)CNC(=O)CNC(=O)CNC(=O)[C@H](CO[C@@H]2OC(CO)[C@@H](O)[C@H](O)C2O)NC(=O)CCNC(=O)OC[C@@H]2[C@@H]3CCC#CCC[C@@H]32)ccc1-c1ccc(C[C@H](NC(=O)[C@H](CC(=O)O)NC(=O)[C@H](CO)NC(=O)[C@@H](NC(=O)[C@](C)(Cc2ccccc2F)NC(=O)[C@@H](NC(=O)CNC(=O)[C@H](Cc2nn[nH]n2)NC(=O)C(C)(C)C(=O)NCCc2cnc[nH]2)[C@@H](C)O)[C@@H](C)O)C(=O)N[C@@H](CCCc2cc(C)cc(C)c2)C(N)=O)cc1 (some centres unmarked) [LP18, BCN-NHC2H4CO-(glucose) SG4-P9] | – | 0.458 | – | – | – | – | – | – | – | – | –
CCc1cc(OCCCCN)ccc1-c1ccc(C[C@H](NC(=O)[C@H](CC(=O)O)NC(=O)[C@H](CO)NC(=O)[C@@H](NC(=O)[C@](C)(Cc2ccccc2F)NC(=O)[C@@H](NC(=O)CNC(=O)[C@H](Cc2nn[nH]n2)NC(=O)CNC(=O)CCc2c[nH]cn2)[C@@H](C)O)[C@@H](C)O)C(=O)N[C@@H](CCCc2cc(C)cc(C)c2)C(N)=O)cc1 [P12] (Desaminohistidyl-G[Ala(1H-tetrazol-5-yl)]GT[αMePhe(2-F)]TSD[Bip(2'-Et,4'-O(CH2)4NH2)][Nva(5-(3,5-Me2Ph))]-NH2) | – | – | 76.4 | 46.5 | 116.2 | > 200 | 1.2 | >57.81 | > 57.8 | – | –
CCc1cc(OCCCCN)ccc1-c1ccc(C[C@H](NC(=O)[C@H](CC(=O)O)NC(=O)[C@H](CO)NC(=O)[C@@H](NC(=O)[C@](C)(Cc2ccccc2F)NC(=O)[C@@H](NC(=O)CNC(=O)[C@H](Cc2nn[nH]n2)NC(=O)[C@H](C)NC(=O)[C@H](Cc2c[nH]cn2)NC(=O)[C@@H](N)CCC(N)=O)[C@@H](C)O)[C@@H](C)O)C(=O)N[C@@H](CCCc2cc(C)cc(C)c2)C(N)=O)cc1 [P13] (H-QHA[Ala(1H-tetrazol-5-yl)]GT[αMePhe(2-F)]TSD[Bip(2'-Et,4'-O(CH2)4NH2)][Nva(5-(3,5-Me2Ph))]-NH2) | – | – | 69.5 | 1.5 | 105.6 | > 200 | 1.2 | 16.9 | 16.9 | – | –
CCc1cc(OCCCCN)ccc1-c1ccc(C[C@H](NC(=O)[C@H](CC(=O)O)NC(=O)[C@H](CO)NC(=O)[C@@H](NC(=O)[C@](C)(Cc2ccccc2F)NC(=O)[C@@H](NC(=O)CNC(=O)[C@H](CCC(N)=O)NC(=O)C(C)(C)C(=O)NCCc2cnc[nH]2)[C@@H](C)O)[C@@H](C)O)C(=O)N[C@@H](CCCc2cc(C)cc(C)c2)C(N)=O)cc1 [P21] | – | – | 58.8 | 0.7 | 89.5 | > 200 | 1.3 | – | > 57.8 | >173.4 | –
CCc1cc(OCCCCN)ccc1-c1ccc(C[C@H](NC(=O)[C@H](CC(=O)O)NC(=O)[C@H](CO)NC(=O)[C@@H](NC(=O)[C@](C)(Cc2ccccc2F)NC(=O)[C@@H](NC(=O)CNC(=O)[C@H](Cc2nn[nH]n2)NC(=O)C(C)(C)C(=O)NCCc2cnc[nH]2)[C@@H](C)O)[C@@H](C)O)C(=O)N[C@@H](CCCc2cc(C)cc(C)c2)C(=O)Nc2ccccc2)cc1 [P23] ({Malonyl(2,2-Me2,histaminyl)}-[Ala(1H-tetrazol-5-yl)]GT[αMePhe(2-F)]TSD[Bip(2'-Et,4'-O(CH2)4NH2)][Nva(5-(3,5-Me2Ph))]-NHPh) | – | – | 57.1 | 103.0 | 86.9 | > 200 | 1.6 | – | – | – | 10.74
